Test results reported in US20220408756A1, “POULTRY FEED AND DRINKING WATER COMPOSITION COMPRISING MONOMETHYLSILANETRIOL” (RXW Group nv, priority 2019, published 2022).

Experiments:
[1] = test system: broiler chicken; assay: Femur head necrosis and tibia dyschondroplasy scores; format: in vivo; set-up: Femur head necrosis score (mean): scale not given here; settings: D41; for Tibia dyschondroplasy score (mean) / Tibia dyschondroplasy, number of birds with score 0 / Tibia dyschondroplasy, number of birds with score 1 / Tibia dyschondroplasy, number of birds with score 2: unilateral, scale 0 to 2
Experimental: (§1) A study was conducted to investigate the effect of silicium supplementation in drinking water of broiler chicken on their performance, locomotive system, skin healing and bone formation. Silicium was supplemented in 2 treatment groups. A third group was used as control and not treated with silicium. Silicium-monomethylsilanetriol (Si-MMST) was administrated at 2 different concentrations. More specific, Si-MMST was added to drinking water at 0.3 mg/l and 1.48 mg/l. These refer to the final silicium concentrations as measured by ICP-AES. Birds were moreover reared on humidified bedding material to simulate bad housing conditions and induce mild locomotive and skin complications. During the study, performance was assessed by weighing birds and monitoring feed intake on specific time points, separating the study in a starter, grower and finisher period. Additionally, mobility of the birds was assessed at the end of the grower (D33) and finisher period (D41) by means of gait scoring (Kestin et al., 1992). At the end of the trial (D41), footpad and chest lesions, femur head necrosis and tibia dyschondroplasy were assessed by qualified veterinarians, which also isolated 1 tibia per bird for bone strength and composition analysis. The main results of this study are summarizes in table 1.
As 1 of the 2 tibia needs to be isolated unimpaired, tibia dyschondroplasy could only be scored unilateral. Therefore the tibia dyschondroplasy scoring ranges from 0 to 2 instead of 0 to 5.
On D41, all birds were scored for femur head necrosis and tibia dyschondroplasy as described in table 8. No significant differences could be observed between the UC and silicium treated groups based on femur head necrosis and tibia dyschondroplasy.

[2] = test system: broiler chicken; assay: Bone composition measurements (tibia); format: in vivo; settings: for Bone ash / Bone calcium content / Bone copper content / Bone dry matter / Bone phosphorus content / Bone zinc content: D41; for Bone manganese content: D41, values below detection limit (<5) set to 2.5
Experimental: as §1
(§2) On D41, one tibia of each bird was collected for analysis. Initially, we selected 2 birds in each pen (first 2 numbers/pen) to obtain 50 samples for analysis of bone weight, fracture force (N), maximum force (N), stiffness (N/mm), bone dry matter (%), bone ash (%), phosphorus content (%), calcium content (%), copper content (mg/kg), manganese content (mg/kg) and zinc content (mg/kg). The results of bone strength measurement per treatment group are presented in table 9 and analysis on bone composition is represented in table 10.

[3] = test system: broiler chicken; assay: Bone strength measurement (tibia); format: in vivo; settings: D41
Experimental: as §1, §2

[4] = test system: broiler chicken; assay: Footpad and chest lesion scores; format: in vivo; set-up: Footpad lesion score (mean) / Chest lesion score (mean): scale not given here; settings: D41
Experimental: as §1
More specific, the average footpad lesion score decreased from 1.31 in the UC to 0.9 in the 0.3 mg/l Si-MMS treatment group.

[5] = Stability in water; format: physicochemical
Experimental: This organosilicon compound is highly bioavailable. […] MMST can advantageously be used without stabilizers in silicon equivalent concentrations up to 300 mg/l. The stability of MMST is dependent on concentration and declines at higher concentrations. The stability can be enhanced by the use of stabilizing agents.

[6] = test system: broiler chicken; assay: Animal body weight and daily weight gain, broiler study with silicium in drinking water; format: in vivo; settings: for BW D0 (LSM): day 0; for BW D14 (LSM): day 14; for BW D33 (LSM): day 33
Experimental: as §1, with “More specific, Si-MMST was added to drinking water at 0.3 mg/l and 1.48 mg/l.” left out
Average daily weight gain (DWG) for example in starter period (D0-D14) was calculated, using following formula: […]
Similar formula was used to calculate the DWG for all the experimental periods. Table 2 and 3 respectively show the body weight (BW) and daily weight gain (DWG) for the different time points or experimental periods.

[7] = test system: broiler chicken; assay: Feed consumption and feed conversion; format: in vivo
Experimental: as §1
The total feed weight was measured per pen when switching between feed compositions. The feed weight (“Feed IN”) was measured and recorded on D0, D14, D33 and D41. Two pens during grower period and all pens during finisher period were supplemented with extra feed to enable at libitum feeding. This extra feed was also weighed and recorded as “Feed IN”. The remaining feed in each pen (“Feed OUT”) was weighed and recorded on D14, D33 and D41. The feed intake (=difference in feed weight at beginning and the end of the experimental period) was calculated for each group per study period. The average daily feed intake (DFI) was calculated for the experimental period using the feed intake data by using following formula: […]
The Feed Conversion Ratio (FCR) was calculated for each of the above mentioned study periods, using following formula: […]

[8] = test system: broiler chicken; assay: Gait scoring (Kestin et al., 1992); format: in vivo; settings: day 33
Experimental: as §1, with “The main results of this study are summarizes in table 1.” left out
On D33 and D41, mobility of the birds was evaluated individually by using the gait scoring chart as described by Kestin et al., 1992. […]

[9] = 0.3 mg/l Si-MMST in drinking water
[10] = 1.48 mg/l Si-MMST in drinking water

C[Si](O)(O)O [Si-MMST, monomethylsilanetriol]
Femur head necrosis score (mean) [1, 9]: 1.29
Femur head necrosis, number of birds with score 0 [1, 9]: 10
Femur head necrosis, number of birds with score 1 [1, 9]: 15
Femur head necrosis, number of birds with score 2 [1, 9]: 24
Femur head necrosis, number of birds with score 3 [1, 9]: 0
Femur head necrosis, number of birds with score 5 [1, 9]: 0
Tibia dyschondroplasy score (mean) [1, 9]: 0.10
Tibia dyschondroplasy, number of birds with score 0 [1, 9]: 44
Tibia dyschondroplasy, number of birds with score 1 [1, 9]: 5
Tibia dyschondroplasy, number of birds with score 2 [1, 9]: 0
Femur head necrosis score (mean) [1, 10]: 1.2
Femur head necrosis, number of birds with score 0 [1, 10]: 15
Femur head necrosis, number of birds with score 1 [1, 10]: 7
Femur head necrosis, number of birds with score 2 [1, 10]: 22
Femur head necrosis, number of birds with score 3 [1, 10]: 1
Femur head necrosis, number of birds with score 5 [1, 10]: 0
Tibia dyschondroplasy score (mean) [1, 10]: 0.09
Tibia dyschondroplasy, number of birds with score 0 [1, 10]: 41
Tibia dyschondroplasy, number of birds with score 1 [1, 10]: 4
Tibia dyschondroplasy, number of birds with score 2 [1, 10]: 0
Bone ash [2, 9]: 22.6%
Bone calcium content [2, 9]: 35.3%
Bone copper content [2, 9]: 3.3 mg/kg
Bone dry matter [2, 9]: 49.0%
Bone phosphorus content [2, 9]: 17.8%
Bone zinc content [2, 9]: 326.9 mg/kg
Bone manganese content [2, 9]: 7.4 mg/kg
Bone ash [2, 10]: 22.9%
Bone calcium content [2, 10]: 35.1%
Bone copper content [2, 10]: 3.2 mg/kg
Bone dry matter [2, 10]: 49.1%
Bone phosphorus content [2, 10]: 17.6%
Bone zinc content [2, 10]: 340.3 mg/kg
Bone manganese content [2, 10]: 8.2 mg/kg
Bone weight (mean) [3, 9]: 12.3 g
Fracture force (mean) [3, 9]: 360.7 N
Maximum force (mean) [3, 9]: 372.5 N
Stiffness (mean) [3, 9]: 148.8 N/mm
Bone weight (mean) [3, 10]: 13.2 g
Fracture force (mean) [3, 10]: 400.6 N
Maximum force (mean) [3, 10]: 409.6 N
Stiffness (mean) [3, 10]: 164.3 N/mm
Chest lesion score (mean) [4, 9]: 0.02
Chest lesion, number of birds with score 0 [4, 9]: 48
Chest lesion, number of birds with score 1 [4, 9]: 1
Footpad lesion score (mean) [4, 9]: 0.9
Footpad lesion, number of birds with score 0 [4, 9]: 19
Footpad lesion, number of birds with score 1 [4, 9]: 16
Footpad lesion, number of birds with score 2 [4, 9]: 14
Chest lesion score (mean) [4, 10]: 0.00
Chest lesion, number of birds with score 0 [4, 10]: 45
Chest lesion, number of birds with score 1 [4, 10]: 0
Footpad lesion score (mean) [4, 10]: 1.04
Footpad lesion, number of birds with score 0 [4, 10]: 8
Footpad lesion, number of birds with score 1 [4, 10]: 27
Footpad lesion, number of birds with score 2 [4, 10]: 10
silicon equivalent concentration usable without stabilizers ([5]; in water, without stabilizers): up to 300 mg/l
stability in water ([5]; low concentrations): sufficiently stable
BW D0 (LSM) ([6]; 0.3 mg/l Si-MMST in drinking water (Si-MMST 1)): 48 g
DWG D0-14 (LSM) [6, 9]: 25.6 g
DWG D0-41 (LSM) ([6]; 0.3 mg/l Si-MMST in drinking water, D0-41): 63.1 g
DWG D14-33 (LSM) [6, 9]: 70.6 g
DWG D33-41 (LSM) [6, 9]: 111.1 g
BW D14 (LSM) [6, 9]: 407 g
BW D33 (LSM) [6, 9]: 1748 g
BW D41 (LSM) ([6]; 0.3 mg/l Si-MMST in drinking water, day 41): 2636 g
DWG over the complete study period (D0-D41) versus control ([6]; 1.433 mg/l Si-MMST in drinking water, D0-D41): significantly increased
body weight on day 41 versus control ([6]; 1.433 mg/l Si-MMST in drinking water, day 41): significantly increased
BW D0 (LSM) ([6]; 1.48 mg/l Si-MMST in drinking water (Si-MMST 2)): 48 g
DWG D0-14 (LSM) [6, 10]: 25.8 g
DWG D14-33 (LSM) [6, 10]: 77.6 g
DWG D33-41 (LSM) [6, 10]: 111.1 g
BW D14 (LSM) [6, 10]: 410 g
BW D33 (LSM) [6, 10]: 1883 g
BW on day 41 ([6]; 1.48 mg/l Si-MMST in drinking water, day 41, UC 2.622 kg): 2.775 kg
DFI D0-14 (mean) [7, 9]: 24.9 g
FCR D0-14 (mean) [7, 9]: 1.0
DFI D0-41 (mean) [7, 9]: 117.4 g
FCR D0-41 (mean) [7, 9]: 1.9
DFI D14-33 (mean) [7, 9]: 141.2 g
FCR D14-33 (mean) [7, 9]: 2.0
DFI D33-41 (mean) [7, 9]: 207.0 g
FCR D33-41 (mean) [7, 9]: 1.9
DFI D0-14 (mean) [7, 10]: 25.0 g
FCR D0-14 (mean) [7, 10]: 1.0
DFI D0-41 (mean) [7, 10]: 114.4 g
FCR D0-41 (mean) [7, 10]: 1.8
DFI D14-33 (mean) [7, 10]: 132.7 g
FCR D14-33 (mean) [7, 10]: 1.7
DFI D33-41 (mean) [7, 10]: 218.5 g
FCR D33-41 (mean) [7, 10]: 2.1
daily feed intake versus control ([7]; MMST supplemented treatment groups, all study periods and D0-D41): higher than the control
Gait score D33 (mean) [8, 9]: 0.26
Gait score D33 (mean) [8, 10]: 0.27
